Reference: patent US5928645A, “Extracted substance having anti-HIV activity” (Young Bok Han & Korean Assoc. of Creation Research, priority 1992, dated 1999)
Like-named read-outs stand apart in the source and are kept apart here.

Assays:
[1] = test system: HIV-infected cells (T cell line SupT1); assay: Syncytium-formation assay (number of multinucleate cells); type: cell-based; details: three-day incubation
Protocol: To evaluate toxicity of the extracted substances on a T cell line (SupT1), maximum acceptable concentrations of antiviral agents were determined as follows:
After incubation, the cells were treated with trypan blue. The number of cells that excluded the dye was counted using a hemocytometer. "TCID50 " is defined as the 50% tissue culture-infective dose. (Reference: Techniques in HIV research, ed. Aldovini, A., and Walter, B. D., Stockton Press, N.Y. Unitd States, Chapter 4. Quantitative assay for virus infectivity, pp. 71-73, 1990.) The 50% tissue culture-infective dose (TCID50) is calculated using the method of Reed and Muench (Dulbecco, R., "Endpoint Method-Measurement of the infectious titer of a viral sample" in the chapter entitled: The Nature of Viruses in Virology, Second Edition, J. P. Lippincott, Philadelphia, pp. 22-25, 1988). This method is applicable for measuring the infectious titer of a viral sample from an assay involving a series of progressive dilutions of virus. To generate the 50% endpoint dilution, an empirical pooling of the results is done after reading the plate for visible infection at all of the dilutions tested. In cell cultures, the tissue culture infective dose (TCID50) is the dilution of virus suspension that infects 50% of the cell cultures as measured by visible CPE.
After a three-day incubation the number of multinucleate cells in each culture were counted. As comparative tests, similar experiments were performed using AZT or berberine, rather than the extract of the present invention, to treat the cells.

[2] = test system: reverse transcriptase; assay: Reverse transcriptase activity of HIV-infected H9 cells; type: cell-based; details: 0.5 μg/ml
Protocol: The effect of the extract of the present invention on reverse transcriptase activity and on viral replication was also measured in H9 host cells. HIV infected H9 cells were cultured in RPMI 1640 supplemented with 10% (v/v) of heat-inactivated fetal calf serum and 1% (v/v) […] Every third day 1/4 of the cultures were transferred to new media containing the same concentration of the extract. The cultures were harvested after 9 days and centrifuged for 3 minutes in an Eppendorf centrifuge. 600 μl of supernatant was mixed 300 μl of 30% polyethylene glycol (PEG) and then centrifuged for 10 minutes. The pellet was resuspended in RT suspension buffer (50 mM Tris, pH 7.5, 1 mM DTT, 20% glycerol, 0.25% Triton X-100). These virus samples were frozen at -70° C. until assayed. Aliquots of virus (10 μl) were incubated with 20 μl of a cocktail containing 50 mM Tris, pH 7.5, 5 mM DTT, 5 mM MgCl2, 150 mM KCl, 0.05% Triton X-100, 0.3 mM glutathione, 0.5 mM EGTA, 50 μg/ml poly(rA)dT, 10μ Ci thymidine triphosphate, and 17.25 μl distilled water for 1 hour at 37° C. […] Precipitates were collected on Whatman GF/C glass fibers, washed several times with ice-cold 5% TCA and once with 70% ethanol, air dried and counted in a liquid scintillation counter.

[3] = test system: ABEI-microperoxidase-H2 O2 system; assay: Antioxidant activity by chemiluminescence (inhibition of light intensity); type: biochemical
Excerpt: Therefore, we characterized the extract of the present invention with respect to its ability to function as an antioxidant. We compared the extract to the known antioxidant t-butylhydroxy toluene (BHT) using a chemiluminescence assay developed in this laboratory. […] Therefore, it is proposed that the extract has anti-HIV effect.
Materials: microperoxidase (MP, Sigma Chemical Company, St. Louis, Mo., U.S.A.), aminobuty ethylisoluminol (ABEI, Sigma Chemical Company, St. Louis, Mo., U.S.A.), t-butylhydroxy toluene (BHT, Sigma Chemical Company, St. Louis, Mo., U.S.A.).
An ABEI-microperoxidase-H2 O2 system was used to assay the antioxidant activity of the extract of the present invention and also that of the known antioxidant BHT. The activity of berberine as an antioxidant was also assessed.
ABEI was used at 0.18 μM. Compounds being assayed were used at 10 mg/ml as a maximum concentration and also at serial dilutions. 200 μL of ABEI, t-butylhydroxy toluene (BHT), pure berberine or the extracted substance at 10 mg/ml (or a serial dilution thereof) were put in a polystyrene tube suitable for use in a Berthold 9502 luminometer. Hydrogen peroxide (0.35%) and microperoxidase (0.01 mg/ml) were autoinjected into the tube to start the chemiluminescence reaction. Chemiluminescence from the reaction was measured for 2 seconds using a Berthold Luminometer 9502 (Clilumat). In control samples distilled water and ethyl alcohol were used. The antioxidant activity of the extract was compared with commercial antioxidant BHT. The antioxidant activity of BHT has been studied for many years (Branen, A. L.; Toxicological and biochemistry of butylated hydrosyanisole and butylated hydroxytoluene. J. Am. Oil Chem. Soc. 52:59, 1975). BHT removes free radicals in oxidation reactions, and it inhibits oxidation of materials.
An antioxidant present in the sample will prevent ABEI from being oxidized by microperoxidase, thus inhibiting chemiluminescence. Antioxidant activity was calculated from the chemiluminescence intensity using the following expression: [formula]

[4] = test system: HIV reverse transcriptase; details: cited from earlier work
[5] = test system: HIV; details: Tan et al. 1992; cited from earlier work
[6] = with respect to the template-primer complex, (rA)n, (dT)
[7] = with respect to the triphosphate substrate, dTTP

Compound: Cc1cn([C@H]2C[C@H](N=[N+]=[N-])[C@@H](CO)O2)c(=O)[nH]c1=O [AZT, azidothymidine]
- No. of Multiple-Nucleate Cells ([1]; 0.2 μg/mL): 0
- No. of Multiple-Nucleate Cells ([1]; 0.5 μg/mL): 1
- No. of Multiple-Nucleate Cells ([1]; 1 μg/mL): 0
- No. of Multiple-Nucleate Cells ([1]; 5 μg/mL): 0

Compound: COc1ccc2cc3[n+](cc2c1OC)CCc1cc2c(cc1-3)OCO2 [Berberine, berberine]
- No. of Multiple-Nucleate Cells ([1]; 0.1 μg/mL): 8
- No. of Multiple-Nucleate Cells ([1]; 0.5 μg/mL): 5
- No. of Multiple-Nucleate Cells ([1]; 1 μg/mL): 2
- No. of Multiple-Nucleate Cells ([1]; 3 μg/mL): 1
- inhibition of viral RT activity [2]: marked inhibitory effect on RT activity
- Percentage of inhibition of light intensity ([3]; 0.63 mg/ml): 11%
- Percentage of inhibition of light intensity ([3]; 1.25 mg/ml): 12%
- Percentage of inhibition of light intensity ([3]; 2.5 mg/ml): 12%
- Percentage of inhibition of light intensity ([3]; 5.0 mg/ml): 21%
- Percentage of inhibition of light intensity ([3]; 10.0 mg/ml): 57%
- antioxidant activity compared with the total extract ([3]; 0.63-10.0 mg/ml): much lower

Compound: O=c1cc(-c2ccccc2)oc2cc(O)c(O)c(O)c12 [baicalein]
- mode of inhibition [4, 6]: partially competitive
- mode of inhibition [4, 7]: noncompetitive

Compound: COc1ccc2cc3[n+](cc2c1OC)CCc1cc2c(cc1-3)OCO2 [berberine chloride]
- order of anti-HIV effect [5]: jatrorrhizine chloride>berberine chloride>coptisine chloride

Compound: c1c2c(cc3c1OCO3)-c1cc3ccc4c(c3c[n+]1CC2)OCO4 [coptisine chloride]
- order of anti-HIV effect [5]: jatrorrhizine chloride>berberine chloride>coptisine chloride

Compound: COc1cc2c(cc1O)CC[n+]1cc3c(OC)c(OC)ccc3cc1-2 [jatrorrhizine chloride]
- order of anti-HIV effect [5]: jatrorrhizine chloride>berberine chloride>coptisine chloride

Compound: O=c1c(O)c(-c2ccc(O)c(O)c2)oc2cc(O)c(O)c(O)c12 [quercetagetin]
- mode of inhibition [4, 6]: partially competitive
- mode of inhibition [4, 7]: noncompetitive

Compound: O=c1c(O)c(-c2ccc(O)c(O)c2)oc2cc(O)cc(O)c12 [quercetin]
- mode of inhibition [4, 6]: partially competitive
- mode of inhibition [4, 7]: noncompetitive
